According to patent publication US20230151046A1, “5-POSITION MODIFIED PYRIMIDINES” (Nuclera Nucleics Ltd., priority 2020, published 2023):

How the values were obtained:
[1] = Stability test of 2′-deoxycytidine and 2′-deoxy-5-fluorocytidine to methoxylamine (1× ORS), LC/MS; format: physicochemical; settings: 1× ORS (methoxylamine, pH 5.5 acetate), room temperature (FIG. 9)
Protocol: Stability Test of 2′-Deoxycytidine and 2′-Deoxy-5-Fluorocytidine to methoxylamine Oxime removal solution buffer (2× ORS) was prepared from methyoxylamine hydrochloride (60 mg, 0.71 mmol), water (200 μL), pH 5.5 sodium acetate (200 μL) and 10 M sodium hydroxide (53.4 μL) and additional water (1.4 mL). A previously frozen sample of this buffer was further diluted with water by a factor of two to yield 1× ORS. Samples of 2′-deoxycytidine (˜0.5 mg) and 2′-deoxy-5-fluorocytidine (˜0.5 mg) were dissolved in 1 mL aliquots of the buffer. The samples were analysed by LC/MS immediately after making up the samples and at intervals while stored together at room temperature. Appearance of the reaction products 2′-deoxy-4(N)-methoxy cytidine (1) and 2′-deoxy-4(N)-methoxy-5-fluorocytidine (2) and a corresponding loss of starting material was observed. The corresponding loss of starting material relative to the reaction products is plotted on the graph below.
HPLC Method for LC/MS Analysis

[2] = Stability of 5-position modified 2′-deoxycytidine nucleosides to nitrite solution (nitrite-mediated deamination), LC-MS time course; format: physicochemical
Protocol: A series of 5-position modified nucleosides were tested. Each was incubated at room temperature in 700 mM NaNO2, 1 M acetate buffer pH 5.5 and the stability assayed by LC-MS over a time course. […] Electron withdrawing substituents such as the fluoro or alkynyl substituents increase stability. Electron donating substituents such as methyl and hydroxymethyl decrease stability.
LC-MS was used to monitor nucleosides throughout a time course of incubation in 700 mM sodium nitrite at pH 5.5. Integration of UV chromatograms was performed, and the percentage of starting nucleoside plotted.
In addition to monitoring the persistence of the starting material UV peak, the deamination products can be monitored. Deamination products were identified by their mass signals and appearance under nitrite incubation (FIG. 5).

SMILES: Nc1nc(=O)n([C@H]2C[C@H](O)[C@@H](CO)O2)cc1F [5-fluoro-2′-deoxycytidine]
- stability to methoxylamine treatment relative to canonical dC [1]: ~10 ×
- rate of nitrite-mediated deamination, fold lower than the canonical deoxycytidine analogue ([2]; 700 mM pH 5.5 nitrite, room temperature (FIG. 1)): 4 fold

SMILES: Cc1cn([C@H]2C[C@H](O)[C@@H](CO)O2)c(=O)nc1N [5-methyl-2′deoxycytidine, reference compound]
- rate of nitrite-mediated deamination, fold greater than the canonical deoxycytidine analogue ([2]; 700 mM pH 5.5 nitrite, room temperature (FIG. 2)): 2 fold

SMILES: CC#Cc1cn([C@H]2C[C@H](O)[C@@H](CO)O2)c(=O)nc1N [5-propynyl, 5-propynyl-2′-deoxycytidine]
- stability to nitrite solution (in words) ([2]; 700 mM NaNO2, 1 M acetate buffer pH 5.5, room temperature, relative to parent deoxycytidine): increased stability
